target: T1, Glucocorticoid receptor (Homo sapiens) (UniProt P04150); conditions: HeLa
T1 sequence (whole entry): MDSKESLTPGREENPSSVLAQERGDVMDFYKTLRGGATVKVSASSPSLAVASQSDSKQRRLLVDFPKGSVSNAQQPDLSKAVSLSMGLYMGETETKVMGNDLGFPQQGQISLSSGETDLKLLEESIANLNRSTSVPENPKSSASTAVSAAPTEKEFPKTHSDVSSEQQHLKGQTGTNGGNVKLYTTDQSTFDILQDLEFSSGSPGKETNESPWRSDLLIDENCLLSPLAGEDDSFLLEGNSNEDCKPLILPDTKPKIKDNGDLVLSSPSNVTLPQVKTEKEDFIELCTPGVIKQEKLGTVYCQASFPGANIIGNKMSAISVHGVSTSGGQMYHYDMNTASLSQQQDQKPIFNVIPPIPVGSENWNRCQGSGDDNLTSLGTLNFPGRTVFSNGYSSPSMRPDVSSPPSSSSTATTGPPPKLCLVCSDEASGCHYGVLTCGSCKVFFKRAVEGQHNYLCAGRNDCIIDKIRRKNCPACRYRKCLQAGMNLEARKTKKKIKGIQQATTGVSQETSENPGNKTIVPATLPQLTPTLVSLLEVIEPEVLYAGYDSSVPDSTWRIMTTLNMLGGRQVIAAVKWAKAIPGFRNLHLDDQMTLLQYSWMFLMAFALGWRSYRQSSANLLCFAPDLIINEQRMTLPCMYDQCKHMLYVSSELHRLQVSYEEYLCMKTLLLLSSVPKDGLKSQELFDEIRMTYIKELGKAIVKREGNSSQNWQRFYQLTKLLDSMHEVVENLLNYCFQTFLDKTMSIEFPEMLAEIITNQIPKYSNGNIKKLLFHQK
Description: Relative transcriptional activation in HeLa cells expressing glucocorticoid receptor

| SMILES | RSA |
| --- | --- |
| C[C@@H]1CC2C3CCC4=Cc5c(cnn5-c5cnccc5Cl)CC4(C)C3C(O)CC2(C)[C@@]1(O)C(=O)CO (some centres not stated) | 33 |
| C[C@@H]1CC2C3CCC4=Cc5c(cnn5-c5ncccn5)CC4(C)C3C(O)CC2(C)[C@@]1(O)C(=O)CO (some centres not stated) | 0 |
| C[C@@H]1CC2C3CCC4=Cc5c(cnn5-c5ccncn5)CC4(C)C3C(O)CC2(C)[C@@]1(O)C(=O)CO (some centres not stated) | 0 |
| C[C@@H]1CC2C3CCC4=Cc5c(cnn5-c5ccccn5)CC4(C)C3C(O)CC2(C)[C@@]1(O)C(=O)CO (some centres not stated) | 30 |
| C[C@@H]1C[C@H]2[C@@H]3CCC4=CC(=O)C=C[C@]4(C)[C@@]3(F)[C@@H](O)C[C@]2(C)[C@@]1(O)C(=O)CO | 100 |
| C[C@@H]1CC2C3CCC4=Cc5c(cnn5-c5cccnc5Cl)CC4(C)C3C(O)CC2(C)[C@@]1(O)C(=O)CO (some centres not stated) | 97 |

Second part, the compound after the results:

| RSA | SMILES |
| --- | --- |
| 436 | C[C@@H]1CC2C3CCC4=Cc5c(cnn5-c5ccc(F)nc5)CC4(C)C3C(O)CC2(C)[C@@]1(O)C(=O)CO (some centres not stated) |
| 255 | C[C@@H]1CC2C3CCC4=Cc5c(cnn5-c5cccnc5)CC4(C)C3C(O)CC2(C)[C@@]1(O)C(=O)CO (some centres not stated) |
| 24 | C[C@@H]1CC2C3CCC4=Cc5c(cnn5-c5ccc(Cl)nc5)CC4(C)C3C(O)CC2(C)[C@@]1(O)C(=O)CO (some centres not stated) |
| 135 | C[C@@H]1CC2C3CCC4=Cc5c(cnn5-c5ccncc5)CC4(C)C3C(O)CC2(C)[C@@]1(O)C(=O)CO (some centres not stated) |
| 483 | C[C@@H]1CC2C3CCC4=Cc5c(cnn5-c5ccc(F)cc5)CC4(C)C3C(O)CC2(C)C1(O)C(=O)CO (some centres not stated) |
| 121 | C[C@@H]1CC2C3CCC4=Cc5c(cnn5-c5cccnc5F)CC4(C)C3C(O)CC2(C)[C@@]1(O)C(=O)CO (some centres not stated) |
